Assay results as given in patent US20220332758A1, “PEPTIDE-BASED COMPOSITIONS AND METHODS FOR TREATING ALZHEIMER'S DISEASE” (Board of Regents, The Universityof Texas System, priority 2019, published 2022).
“Also recorded” adds a separate entry of the source.

Legend:
human 26S proteasome = molecular target: T1, human 26S proteasome (Homo sapiens, UniProt P25787+P60900); assay: Chymotrypsin-like activity of purified human 26S proteasome, Suc-LLVY-MCA substrate; type: biochemical; conditions: in vitro
T1 construct: purchased Boston Biochemicals (Boston Biochem)

[1] = molecular target: T2, proteasome ChT-L activity in SK-N-SH (ATCC HTB-11) cells (Homo sapiens, UniProt P25787+P60900); assay: ChT-L proteasome activity in lysates of SK-N-SH cells treated with TAT peptides; type: cell-based; conditions: for proteasome ChT-L activity in lysates from treated cells vs control lysates: 1 μM, 24 h
T2 construct: host or cells: SK-N-SH human neuroblastoma cells
Experimental: Cell Culture. Human SK-N-SH neuroblastoma cell line (ATCC® HTB-11™ American Type Culture Collection; Manassas, Va.) were cultured according to ATCC specifications (EMEM, 10% heat-inactivated FBS) The cells at passage 2-4 were treated with 1 μM TAT peptides or the DMSO vehicle diluted with the medium 1: 1000, for 24 h. The content of live cells was determined by the Trypan Blue-exclusion assay. The cells were harvested, washed twice in PBS, resuspended in dilution buffer (as described herein) and stored in −80° C. To prepare lysates, the thawed preparations were vortexed with glass beads and centrifuged for 5 min 5,000×g (4° C.). The supernatant was centrifuged for 20 min 14,000×g (4° C.). The resulting supernatant—“crude lysate” was diluted to 1 mg/mL of total protein with dilution buffer. 1 μg of lysate per assay (reaction buffer: 50 mM Tris/HCl pH 8, 0.1 mM MgCl2, 0.2 mM ATP, 0.1 mM dithiothreitol, 50 μM Suc-LLVY-AMC (SEQ ID NO: 14)) was used for determination of ChT-L activity in a 96-well format, as above.

[2] = molecular target: T3, α face pockets of the 20S core proteasome (Homo sapiens, UniProt P25787+P60900); assay: Competition of TAT peptides with Rpt C-terminal tail peptides for α face pockets (ChT-L activity of 20S); type: biochemical; conditions: for enhanced activation with Rpt tails: 1 μM Rpt peptide; for competition with Rpt tail peptides: 1 μM Rpt peptide added before the TAT peptide
T3 construct: purified from erythrocytes; purchased Boston Biochem, Inc. or Enzo Life Sciences, Inc; host or cells: human erythrocytes
Text: As mentioned herein, the binding pockets on the α face accept “anchors” from natural protein ligands of the 20S core. […] The 10-residue Rpt-derived C-terminal “tail” peptides (“Rpt peptides”) can be used as competitors with the Rpt subunits or with small allosteric ligands. Importantly, the Rpt peptides interject between the subunits with their C-termini, whereas TAT peptides, according to the modeling, use their N-termini for this purpose. To test the specificity of interactions between TAT compounds and the α face, competition experiments were performed. The 20S core was challenged with selected TAT compounds after treatment with Rpt peptides. Peptides of Rpt2 ([…]; SEQ ID NO: 10), Rpt3 ([…]; SEQ ID NO: 11), Rpt5 ([…]; SEQ ID NO: 12) and Rpt6 ([…]; SEQ ID NO: 13) subunits were selected, docking in α3/α4, α1/α2, α5/α6 and α2/α3 pockets, respectively. Tails of Rpt2, 3, and 5 display the canonical HbYX motif, whereas the LeuTrpLys C-terminus of Rpt6 may be considered “pseudo-HbYX”, with a bulky Trp replacing Tyr. Results of the competition experiments are presented as radar plots in FIG. 15. […] This pocket also emerged as the major binding site for (1) and (8). However, these compounds likely weakly competed with the Rpt2 tail for binding to the α3/α4 pocket as well. The α3/α4 pocket seemed to be favored by (6). […] These complex patterns point at the importance of allosteric effects between the α face ligands, the gate and the catalytic chamber.
Determination of Proteasome Activity. Human housekeeping core (20S) proteasome purified from erythrocytes was purchased from Boston Biochem, Inc. (Cambridge, Mass.) or from Enzo Life Sciences, Inc. (Farmingdale, N.Y.). Multiple batches of the proteasomes were used and performed reproducibly. The stock proteasome was diluted to 0.2 mg/mL working solution in “dilution buffer” (50 mM Tris/HCl, pH 8, 20% glycerol). The following model peptide substrates, releasing fluorescent 7-amino-4-methylcoumarin (AMC) reporter group after cleavage, were used: succinyl-LeuLeuValTyr-AMC (SEQ ID NO: 14) (for the ChT-L peptidase; SucLLVY-AMC; Bachem Bioscience Inc., Philadelphia, Pa.), butoxycarbonyl-LeuArgArg-AMC (T-L; Bachem Bioscience Inc., Philadelphia, Pa.) and carbobenzoxy-LeuLeuGlu-AMC (PGPH; Enzo Life Sciences Inc., Farmingdale, N.Y.). The substrates were used at concentration of 50 μM (ChT-L) or 100 μM (T-L, PGPH). Free AMC (Sigma-Aldrich, St. Louis, Mo.) was used as the standard. The C-terminal peptides derived from Rpt2, Rpt3, Rpt5 and Rpt6 were synthesized (standard solid-phase peptide chemistry) and purified to at least 98% purity by GenScript (Piscataway, N.J.). The TAT peptides, Rpt peptides (except Rpt6) and the peptide substrates were dissolved in anhydrous dimethylsulfoxide (DMSO; Sigma-Aldrich, St. Louis, Mo.) and such stock solutions were stored at −20° C. The total concentration of DMSO in final reaction mixtures never exceeded 3% (vol/vol). The Trp (tryptophan)-containing Rpt6 peptide was dissolved in ultrapure water and stored at −20° C., protected from light. The reaction was carried out in 96-well plates, in 100 μL of reaction mixture that consisted of 45 mM Tris/HCl, pH 8, 100 mM KCl, 1 mM EDTA (reaction buffer) and a fluorogenic peptide substrate, to which 200 ng (nearly […]) of proteasome were added. The addition of KCl/EDTA (ethylenediaminetetraacetic acid) to reaction buffer assured latency of the core proteasome. The proteasome was preincubated with a substrate for 10 min at room temperature, then 1 μL of DMSO or a desired concentration of a TAT peptide in 1 μL of DMSO were added. After mixing, the plate was transferred to a Fluoroskan Ascent plate reader (Thermo Fisher Scientific Inc., Waltham, Mass.) for 1 h (37° C.), with fluorescence readouts once per minute. To test the competition with Rpt derived peptides, the Rpt peptide (1 μM) was added before the TAT peptide to the reaction mixture. […]

[3] = system: Elav-gs-GAL4>UAS-APP; UAS-BACE1 flies; assay: Olfaction aversion training in fly AD model; type: in vivo, Drosophila melanogaster; conditions: 1 μM mixed into food, 10 days
Experimental: Olfactory aversion training. Experiments were performed broadly (Malik, B. R. & Hodge, J. J. J Vis Exp, e50107, doi:10.3791/50107 (2014)). Animals were exposed (via an air pump) in alternation to two neutral odors (3-octanol and 4-methylcyclohexanol, prepared as a 1/10 dilution in mineral oil) for 5 minutes under low red-light and a 100V 60 Hz shock was applied during exposure to one of the two odors. The odor associated with the electric shock was alternated between vials. After three training rounds per odor, animals were given one hour to recover then placed in a T-maze (Celexplorer labs) with opposing odors from either side. Flies were allowed two minutes to explore the maze after which the maze sections were sealed and the number of flies in each chamber scored.
The compounds were tested as follows: in neuroblast MC65 cell culture model with overexpressed C99 fragment of amyloid precursor protein (APP) upon tetracycline withdrawal or with external APP added; and in fruit fly (D. melanogaster) model of AD with overexpressed APP and BACE1. The compounds (1 μM) were mixed with food. Flies were trained to recognize “positive” and “negative” odors (olfaction aversion). The compounds were also treated in hAPP (J20) mice which overexpress a familial variant of APP. The compounds were injected for 14 days (1 mg/kg). Novel Object Recognition assay was used to test learning and memory.

N=C(N)NCCCC(NC(=O)CN)C(=O)NC(CCCCN)C(=O)NC(CCCCN)C(=O)NC(CCCNC(=N)N)C(=O)NC(CCCNC(=N)N)C(=O)NC(CCC(N)=O)C(=O)N1Cc2ccccc2C[C@H]1C(=O)N1C(C(=O)NC(CCCNC(N)N)C(=O)N2CCCC2C(=O)NC(CO)C(=O)O)CC2CCCCC21 (some centres unmarked) [(5), GRKKRRQ-TOD-RPS]
activation of 26S proteasome (in words) (human 26S proteasome): strongly activate
proteasome ChT-L activity in lysates from treated cells vs control lysates [1]: significantly higher than activity in control lysates
dose and time dependence of proteasome activation in cells ([1]; 0.5 or 1.0 μM, four or 24 h): substantially stronger after 4 h exposure than after 24 h
enhanced activation with Rpt tails [2]: enhanced activation in the presence of one of Rpt tails, namely Rpt5 or Rpt6
competition with Rpt tail peptides [2]: the Rpt3 peptide (α1/α2 pocket) was its sole competitor; also recorded: competed fairly specifically with Rpt3 tail
olfaction aversion training performance [3]: Improved performance in olfaction aversion training

NCCCCC(N)C(=O)NC(CCCCN)C(=O)NC(CCCCN)C(=O)Nc1cc(NC(=O)C(CCCCN)NC(=O)C(CCCCN)NC(=O)C(N)CCCCN)cc(C(=O)NC(CCCCN)C(=O)NC(CCCCN)C(=O)NC(CCCCN)C(=O)O)c1 (centres unmarked) [(8)]
activation of 26S proteasome (in words) (human 26S proteasome): excellent activator
proteasome ChT-L activity in lysates from treated cells vs control lysates [1]: significantly higher than activity in control lysates
enhanced activation with Rpt tails [2]: enhanced activation in the presence of one of Rpt tails, namely Rpt5 or Rpt6
competition with Rpt tail peptides [2]: weakly negative score for the Rpt2 tail to the presumed major competitor Rpt3
olfaction aversion training performance [3]: Improved performance in olfaction aversion training
